Here are results for two compounds from patent US6600015B2, “Selective linear peptides with melanocortin-4 receptor (MC4-R) agonist activity” (Hoffmann-La Roche Inc., priority 2000, dated 2003).

One experiment deals with T1, MC-1 receptor (Homo sapiens, UniProt Q01726).
T1 construct: expressed in transfected cells; host or cells: 293 cells
Nature of the experiment: Agonist assay: cAMP response in 293 cells transfected with MC-1 receptor (Biotrak-cAMP SPA). In kind it is cell-based. Particulars: MC1-R versus MC4-R agonist activity, transfected 293 cells.

The target of another experiment is T2, MC-4 receptor (Homo sapiens, UniProt P32245).
T2 construct: expressed in transfected cells; host or cells: 293 cells (293MC4, obtained from Dr. Wei Gu, Millenium)
Nature of the experiment: Agonist assay: cAMP response in 293 cells transfected with MC-4 receptor (Biotrak-cAMP SPA). The class given is cell-based. Conditions: cAMP increase, read-out: EC50 for MC4-R agonist activity. As for the experimental part:
Description: 293 cells transfected with either the MC-4 receptor or MC-1 receptor were grown in 96 well plates. The cells were stimulated with either 100 nM NDP-αMSH or screening compounds. Cyclic AMP was extracted from the cells and concentrations were determined using a Biotrak-cAMP SPA assay. Agonists were identified as those compounds causing an increase in cAMP. […] Wei Gu, Millenium) were cultured in 75cm^2flasks in D-MEM supplemented with 10% FCS and 500 μg/ml G418. Cells were trypsinized and split 1:3 into 96 well flat-bottom tissue culture treated plates. Cells were stimulated at confluence (day 2-4). cAMP Response: Compounds serially diluted in 100% DMSO were further diluted 1:200 (2.5 μl compound dilution+500 μl media) in D-MEM containing 10% FBS and 0.1 mM IBMX. For unstimulated cells, 2.5 μl of DMSO was added to 500 μl of media. For NDP-αMSH stimulated cells, 2.5 μl of 20 μM NDP-αMSH in 100% DMSO was added to 500 μl of media (final conc. 100 nM). Final concentration of DMSO in all wells was 0.5%. Note: Each sample was run in duplicate on separate plates Culture medium was removed from confluent 96 well culture plates and replaced with 200 μl of above dilutions into the appropriate wells . The plates were incubated for 1 hr at RT. […] [125I]cAMP binding to the SPA beads was determined by counting each plate for 2 minutes on a Packard TopCount™. […]

One may read the EC50 as the concentration that produces a half-maximal response.

Non-standard residues stand in square brackets, D forms with d. Residues, ends and D or L forms follow the SMILES beside them. *: point of attachment. Butyryl = CCCC(=O)* A value given as a limit tells only on which side of the number the result lay.

T1 sequence (Q01726 whole entry): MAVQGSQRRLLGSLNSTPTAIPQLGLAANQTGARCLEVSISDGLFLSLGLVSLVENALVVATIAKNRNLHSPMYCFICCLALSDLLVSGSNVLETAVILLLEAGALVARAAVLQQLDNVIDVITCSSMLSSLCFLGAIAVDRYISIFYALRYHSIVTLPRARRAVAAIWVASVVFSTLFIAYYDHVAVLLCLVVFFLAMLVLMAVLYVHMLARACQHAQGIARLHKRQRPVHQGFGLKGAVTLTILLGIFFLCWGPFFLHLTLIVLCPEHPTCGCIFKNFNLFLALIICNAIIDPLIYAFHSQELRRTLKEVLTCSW
T2 sequence (P32245 whole entry): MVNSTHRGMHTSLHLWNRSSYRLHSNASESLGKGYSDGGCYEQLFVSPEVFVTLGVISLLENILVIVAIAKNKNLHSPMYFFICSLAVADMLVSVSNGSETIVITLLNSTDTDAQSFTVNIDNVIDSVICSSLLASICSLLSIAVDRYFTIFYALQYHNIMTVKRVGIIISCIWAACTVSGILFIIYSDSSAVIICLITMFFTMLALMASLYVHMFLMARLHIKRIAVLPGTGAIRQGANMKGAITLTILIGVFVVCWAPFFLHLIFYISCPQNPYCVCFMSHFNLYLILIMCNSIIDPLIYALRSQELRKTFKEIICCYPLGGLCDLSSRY
Description for MC-1 receptor: Culture medium was removed from confluent 96 well culture plates and replaced with 200 μl of above dilutions into the appropriate wells . The plates were incubated for 1 hr at RT. The media was removed, and the plates were washed 1× with 200^μl well of PBS. CAMP was extracted by the addition of 60 μl 70% ethanol (stored in the refrigerator). […]
cAMP Assay: The extracted samples and all reagents included in the kit were brought to room temperature. […] [125I]cAMP binding to the SPA beads was determined by counting each plate for 2 minutes on a Packard TopCount™. […]

With `CCCC(=O)N[C@@H](Cc1c[nH]cn1)C(=O)N[C@H](Cc1ccccc1)C(=O)N[C@@H](CCCNC(=N)N)C(=O)N[C@@H](Cc1c[nH]c2ccccc12)C(=O)NCC(N)=O` [Example 30, Bu-His-(D)Phe-Arg-Trp-Gly-NH2] (Butyryl-H[dF]RWG-NH2), on MC-1 receptor, the “MC1-R agonist activity compared with MC4-R agonist activity” value is “greater MC1-R agonist activity than MC4-R agonist activity”.

With `CCCCC(=O)NC1(C(=O)N[C@H](Cc2ccccc2)C(=O)N[C@@H](CCCNC(=N)N)C(=O)N[C@@H](Cc2c[nH]c3ccccc23)C(=O)NCC(N)=O)CC=C(c2ccccc2)CC1` (single isomer, unassigned) [Penta-Ape-(D)Phe-Arg-Trp-Gly-NH2], on MC-4 receptor, the concentration for a half-maximal effect (EC50) was under 500 nM.
